Measured values from patent US12195804B2, “Treatment of squamous cell carcinoma” (Board of Regents, The University of Texas System, priority 2018, dated 2025).

Columns and labels:
[1] = tested on: HN31 and UM22A orthotopic xenografts; assay: Orthotopic tongue xenograft models of NOTCH1MUT HNSCC; assay type: in vivo, athymic nude mice
Description: FIGS. 8A-8D: PI3K/mTOR pathway inhibitors cause apoptosis and reduce tumor size in NOTCH1^MUT head and neck squamous cell carcinoma (HNSCC) in vivo. FIGS. 8A and 8B. The NOTCH1^MUT cell lines HN31 (FIG. 8A) and UMSCC22A (UM22A; FIG. 8B) were injected subcutaneously (SQ) into athymic nude mice. After tumors reached 150 mm^3, the mice were randomized to receive either vehicle control (2-hydroxypropyl-β-cyclodextrin) or 1 mg/kg GSK2126458 (GSK212) by oral gavage daily for 28 days. Tumor sizes were measured and tumor volumes were calculated at the indicated times, and the percent change in tumor volume at the end of therapy was calculated using the formula (final tumor volume−initial tumor volume/initial tumor volume)×100%. The percentages of TUNEL-positive cells were calculated from image quantification at 40× magnification. FIGS. 8C and 8D. HN31 (FIG. 8C) and UM22A (FIG. 8D) were implanted orthotopically (OT) into the anterior tongues of athymic nude mice. […] Tumor sizes were measured, and tumor volumes and percent changes in tumor volumes were calculated as above. […] The percentages of TUNEL-positive cells were calculated as described above. Data are means±standard deviations from 5 mice per group; p values were calculated using an unpaired t-test with the Welch correction. […]

HNSCC cell lines = assay: CellTiter-Glo cell viability assay; assay type: cell-based, human; settings: 0-200 nM, 72 hours
Description: Cell viability assay. […] A CellTiter-Glo luminescent cell viability assay (Promega, Madison, WI) was performed as described previously (Castel et al., 2016; Muellner et al., 2011). Inhibitory concentration (ICs) and area under the curve (AUC) values were calculated using the drexplorer R package with a best-fit dose-response model (Zumsteg et al., 2016). The combination indices were calculated using the Chou-Talalay method (Cal et al., 2017) in CalcuSyn (Biosoft, Cambridge, UK). We tested the reproducibility and robustness of the data generated using three quality control parameters as described previously (Bohnacker et al., 2017). These parameters were the concordance correlation coefficient, location shift, and maximum standard deviation between two biological replicates for three technical and two biological replicates. Based on heuristics from our previous screening studies in lung cancer (Bohnacker et al., 2017), the cut-offs for reproducibility were a concordance correlation coefficient greater than 0.8, a location shift less than 0.9, and a standard deviation less than 0.23 based on the normal mixture fit model. Experiments not satisfying these criteria were repeated. The replicate with the smallest experimental variation measured by the median of standard deviation was chosen as a representative of the replicates, and its IC values served as the final values for subsequent analysis.
Cell lines were classified as sensitive based on IC70 values less than the peak plasma concentration for each drug. To determine if cross-comparison of the PI3K/mTOR inhibitors as a class was feasible, their drug sensitivity patterns were compared with those of three cell cycle kinase inhibitors tested previously (Zhang et al., 2017). The PI3K/mTOR pathway inhibitors clustered separately from the cell cycle inhibitors (FIG. 12C).

[2] = tested on: PI3K/mTOR pathway proteins; assay: Western blot of PI3K/mTOR pathway proteins; assay type: cell-based, human; settings: 4 hours, NOTCH1WT and NOTCH1MUT lines
Description: FIGS. 7A-7D: PI3K/mTOR signaling inhibition induces cell death in NOTCH1^MUT but not NOTCH1^WT head and neck squamous cell carcinoma (HNSCC) cell lines in vitro. FIG. 7A. Annexin V/propidium iodide or BrDU-terminal deoxynucleotidyl transferase (TdT) dUTP nick-end labeling (TUNEL) assays were used to measure apoptosis in HNSCC cells with the indicated NOTCH1 and PIK3CA mutations, which were treated with 50 nM GSK2126458 (GSK212) for 24 or 48 hours, respectively. Values are the means±standard deviations of three independent experiments. *p<0.05, unpaired two-tailed Student t-test. FIG. 7B. […] At 14-21 days after treatment, the cells were fixed and stained, images were captured using the GelCount Tumour Colony Counter, and colony numbers and the colorimetric intensity of the colonies were determined by measuring the optical density (OD) at 570 nm. […] Three NOTCH1^WT lines (black text and bars) and three NOTCH1^MUT lines (red text and bars) were treated with increasing concentrations of GSK212 for 4 hours, and levels of PI3K/mTOR pathway proteins were measured by Western blot analysis.
Western blot analysis. […] Protein expression was detected using a horseradish peroxidase-conjugated secondary antibody (Bio-Rad, Hercules, CA) and electrochemiluminescence reagent (Amersham Biosciences, Pittsburg, PA).

COc1ncc(-c2ccc3nccc(-c4ccnnc4)c3c2)cc1NS(=O)(=O)c1ccc(F)cc1F [GSK2126458]
tumor size compared with vehicle ([1]; 3 mg/kg oral gavage daily 28 days): significantly reduced tumor size
apoptosis in tumors (TUNEL staining) ([1]; 3 mg/kg oral gavage, end of treatment): underwent apoptosis
cell viability, NOTCH1MUT and NOTCH1WT cell lines (HNSCC cell lines): differential effects
target inhibition (PI3K/mTOR pathway proteins) [2]: dose-dependent target inhibition
